Results taken from patent US20100249116A1 (priority 2007, published 2010).
Like-named read-outs stand apart in the source and are kept apart here.

Assays:
[1] = tested on: acute intoxication of male Wistar rats with ethylene glycol (EG); conditions: rat, in vivo
[2] = in vivo; conditions: male, Wistar, rat, sc

Structure (SMILES)	LD10 (toxicity parameter of EG) ([1]; male, Wistar, sc) [mg/kg]	LD16 (toxicity parameter of EG) ([1]; male, Wistar, sc) [mg/kg]	LD84 (toxicity parameter of EG) ([1]; male, Wistar, sc) [mg/kg]	LD90 (toxicity parameter of EG) ([1]; male, Wistar, sc) [mg/kg]	LD50 [2] [mg/kg]	LD50 (toxicity parameter of EG) ([1]; male, Wistar, sc) [mg/kg]	K - Coefficient of efficiency (ratio of LD50 for treated animals to LD50 for non-treated animals) [1]	KG - Coefficient of guaranteed defense (ratio of LD10 for treated animals to LD90 for non-treated animals) [1]	LD10 (toxicity parameter of EG) ([1]; sc) [mg/kg]	LD16 (toxicity parameter of EG) ([1]; sc) [mg/kg]	LD84 (toxicity parameter of EG) ([1]; sc) [mg/kg]	LD90 (toxicity parameter of EG) ([1]; sc) [mg/kg]
OCCO [EG, Ethylene Glycol]	2220	2490	4530	5200	3500	–	–	–	–	–	–	–
Cc1cn[nH]c1 [4MP, 4-methylpyrazole]	–	–	–	–	–	13000	3.71	2.04	10600	11000	15200	16100
